Laboratory results from patent US20250074901A1, “NOVEL HETEROARYL COMPOUNDS” (ICAGEN, LLC, priority 2021, published 2025).

Molecular target: T1, Kv7.2 (Homo sapiens, UniProt O43526)
T1 construct: expressed in transfected cells
Experiment: Activation of Kv7.2 (in vitro assay, concentration response curve)
Assay type: cell-based
Conditions: for Emax: Kv7.2 activation max %; for EC50: activation of Kv7.2
Description: The term “EC50” in this application is defined as: the agonistic effect of a compound can be determined by testing the compound in an in vitro assay as described herein, whereby the effect of the compound is measured across a range of compound concentrations. The resulting data is plotted as a concentration response curve, which typically follows a sigmoidal function, whereby the concentration of the compound is plotted on the x axis and the response (agonistic effect) is plotted on the y axis. The term “EC50” is the “half maximal effective concentration” and denotes the concentration of a particular compound required to obtain 50% of the maximum response (Emax) which is observed for that compound in the given in vitro assay.

SMILES	Emax [%]	EC50 [nM]
O=C(Nc1cccc(Cl)c1)NC(CO)c1ccnc(OC(F)F)c1 (stereo not drawn) [Example 97, 1-(3-chlorophenyl)-3-[1-[2-(difluoromethoxy)pyridin-4-yl]-2-hydroxyethyl]urea]	55	80
O=C(NCc1ccnc(OC(F)F)c1)NCC1CCC1 [Example 13, 1-(cyclobutylmethyl)-3-[[2-(difluoromethoxy)pyridin-4-yl]methyl]urea]	56	330
O=C(NCc1ccnc(OC(F)F)c1)Nc1cncc(Cl)n1 [Example 98, 1-(6-chloropyrazin-2-yl)-3-[[2-(difluoromethoxy)pyridin-4-yl]methyl]urea]	48	810
O=C(NCc1ccnc(OC(F)F)c1)NC1CC(F)(F)C1 [Example 108, 1-(3,3-difluorocyclobutyl)-3-[[2-(difluoromethoxy)pyridin-4-yl]methyl]urea]	51	2080
O=C(NCc1ccnc(-n2ccnc2)c1)NC1CCCC(C2CC2)C1 (stereo not drawn) [Example 8, 1-(3-cyclopropylcyclohexyl)-3-[(2-imidazol-1-ylpyridin-4-yl)methyl]urea]	52	1520
O=C(NCc1ccnc(OC(F)F)c1)N[C@H]1[C@@H](O)[C@H]2CCC[C@H]21 (racemic) [Example 111, 1-[[2-(difluoromethoxy)pyridin-4-yl]methyl]-3-[rac-(1R,5S,6S,7R)-7-hydroxy-6-bicyclo[3.2.0]heptanyl]urea]	63	2780
O=C(NCc1ccnc(OC(F)F)c1)NC(C1CC1)C(F)(F)F (stereo not drawn) [Example 106, 1-(1-cyclopropyl-2,2,2-trifluoroethyl)-3-[[2-(difluoromethoxy)pyridin-4-yl]methyl]urea]	47	820
O=C(NCc1ccnc(OC(F)F)c1)N[C@H](C1CC1)C(F)(F)F [Example 134, 1-[(1R)-1-cyclopropyl-2,2,2-trifluoroethyl]-3-[[2-(difluoromethoxy)pyridin-4-yl]methyl]urea]	43	550
COC12CC(NC(=O)NCc3ccnc(OC(F)F)c3)(C1)C2 [Example 49, 1-[[2-(difluoromethoxy)pyridin-4-yl]methyl]-3-(3-methoxy-1-bicyclo[1.1.1]pentanyl)urea]	48	1830
COC1(CNC(=O)NCc2ccnc(OC(F)F)c2)CCC1 [Example 38, 1-[[2-(difluoromethoxy)pyridin-4-yl]methyl]-3-[(1-methoxycyclobutyl)methyl]urea]	73	3730
O=C(NCCC1=CCCCC1)NCc1ccnc(-n2cccn2)c1 [Example 10, 1-[2-(cyclohexen-1-yl)ethyl]-3-[(2-pyrazol-1-ylpyridin-4-yl)methyl]urea]	54	1390
O=C(NCc1ccnc(OC(F)F)c1)NC1(C2CCC2)CC1 [Example 50, 1-(1-cyclobutylcyclopropyl)-3-[[2-(difluoromethoxy)pyridin-4-yl]methyl]urea]	56	300
O=C(NCc1ccnc(OC(F)F)c1)NCC1CC(F)C1 (stereo not drawn) [Example 89, 1-[[2-(difluoromethoxy)pyridin-4-yl]methyl]-3-[(3-fluorocyclobutyl)methyl]urea]	46	1040
O=C(NCc1ccnc(OC(F)F)c1)N[C@@H]1CC[C@H](C(F)(F)F)C1 (racemic) [Example 59, 1-[[2-(difluoromethoxy)pyridin-4-yl]methyl]-3-[rac-(1R,3S)-3-(trifluoromethyl)cyclopentyl]urea]	65	110
O=C(NCc1ccnc(OC(F)F)c1)NCC12CC(C1)C2 [Example 31, 1-(1-bicyclo[1.1.1]pentanylmethyl)-3-[[2-(difluoromethoxy)pyridin-4-yl]methyl]urea]	57	420
O=C(NCc1ccnc(OC(F)F)c1)N[C@@H](C1CC1)C(F)(F)F [Example 135, 1-[(1S)-1-cyclopropyl-2,2,2-trifluoroethyl]-3-[[2-(difluoromethoxy)pyridin-4-yl]methyl]urea]	68	1110
O=C(NCc1ccnc(OC(F)F)c1)N[C@@H]1CCC(F)(F)C1 [Example 115, 1-[(1R)-3,3-difluorocyclopentyl]-3-[[2-(difluoromethoxy)pyridin-4-yl]methyl]urea]	48	330
CC1(C)CCC(NC(=O)NCc2ccnc(-n3ccnc3)c2)CC1 [Example 37, 1-(4,4-dimethylcyclohexyl)-3-[(2-imidazol-1-ylpyridin-4-yl)methyl]urea]	59	1310
O=C(NCc1ccnc(OC(F)F)c1)N[C@H]1CCC[C@H]1O (racemic) [Example 118, 1-[[2-(difluoromethoxy)pyridin-4-yl]methyl]-3-[rac-(1R,2S)-2-hydroxycyclopentyl]urea]	63	7870
O=C(NC(CO)c1ccnc(OC(F)F)c1)NC12CCC(F)(CC1)CC2 (stereo not drawn) [Example 85, 1-[1-[2-(difluoromethoxy)pyridin-4-yl]-2-hydroxyethyl]-3-(4-fluoro-1-bicyclo[2.2.2]octanyl)urea]	74	420
COc1cc(CNC(=O)N[C@H]2C[C@H](C(F)(F)F)C2)ccn1 [Example 128, 1-[(2-methoxypyridin-4-yl)methyl]-3-[(1r,3r)-3-(trifluoromethyl)cyclobutyl]urea]	75	5360

Further lines, results first:

Emax [%]	EC50 [nM]	SMILES
40	100	O=C(NCc1ccnc(OC(F)F)c1)N[C@@H]1CCC[C@H](C(F)(F)F)C1 (racemic) [Example 138, 1-[[2-(difluoromethoxy)pyridin-4-yl]methyl]-3-[rac-(1R,3S)-3-(trifluoromethyl)cyclohexyl]urea]
79	60	O=C(NCc1ccnc(OCC(F)(F)F)c1)N[C@@H]1C[C@@H]2[C@H](C1)C2(F)F [Example 238, 1-[(1R,3s,5S)-6,6-difluoro-3-bicyclo[3.1.0]hexanyl]-3-[[2-(2,2,2-trifluoroethoxy)pyridin-4-yl]methyl]urea]
51	290	O=C(NCc1ccnc(OC(F)F)c1)NC1CC(OC(F)(F)F)C1 (stereo not drawn) [Example 267, 1-[[2-(difluoromethoxy)pyridin-4-yl]methyl]-3-[3-(trifluoromethoxy)cyclobutyl]urea]
47	340	O=C(NCc1ccnc(OCC(F)CF)c1)NC12CCC(F)(CC1)CC2 (stereo not drawn) [Example 213, 1-[[2-(2,3-difluoropropoxy)pyridin-4-yl]methyl]-3-(4-fluoro-1-bicyclo[2.2.2]octanyl)urea]
48	890	O=C(NCc1ccnc(OC(F)F)c1)N[C@@H](CC(F)(F)F)C(F)(F)F [Example 273, 1-[[2-(difluoromethoxy)pyridin-4-yl]methyl]-3-[(2S)-1,1,1,4,4,4-hexafluorobutan-2-yl]urea]
84	380	O=C(NC(CO)c1ccnc(OCC(F)(F)F)c1)N[C@H]1C[C@H](C(F)(F)F)C1 (stereo partly drawn) [Example 185, 1-[2-hydroxy-1-[2-(2,2,2-trifluoroethoxy)pyridin-4-yl]ethyl]-3-[(1r,3r)-3-(trifluoromethyl)cyclobutyl]urea]
50	560	C[C@H](F)COc1cc(CNC(=O)NC23CCC(F)(CC2)CC3)ccn1 [Example 156, 1-(4-fluoro-1-bicyclo[2.2.2]octanyl)-3-[[2-[(2S)-2-fluoropropoxy]pyridin-4-yl]methyl]urea]
40	70	Cc1cc(NC(=O)NCc2ccnc(OC(F)F)c2)ccc1F [Example 261, 1-[[2-(difluoromethoxy)pyridin-4-yl]methyl]-3-(4-fluoro-3-methylphenyl)urea]
56	4270	O=C(NCc1ccnc(OC(F)F)c1)NC1C[C@@H](F)[C@@H](F)C1 (mixture of isomers) [Example 234, 1-[[2-(difluoromethoxy)pyridin-4-yl]methyl]-3-[rac-(3R,4S)-3,4-difluorocyclopentyl]urea]
68	250	O=C(NCc1ccnc(OC(F)F)c1)N[C@@H]1CC[C@H](OC(F)(F)F)C1 [Example 288, 1-[[2-(difluoromethoxy)pyridin-4-yl]methyl]-3-[(1R,3S)-3-(trifluoromethoxy)cyclopentyl]urea]
60	130	[2H]C([2H])(NC(=O)NC12CCC(F)(CC1)CC2)c1ccnc(OC(F)F)c1 [Example 251, 1-[dideuterio-[2-(difluoromethoxy)pyridin-4-yl]methyl]-3-(4-fluoro-1-bicyclo[2.2.2]octanyl)urea]
52	310	O=C(NCc1ccnc(OCC(F)CF)c1)N[C@H]1CC[C@@H](C(F)(F)F)C1 (mixture of isomers) [Example 225, 1-[[2-(2,3-difluoropropoxy)pyridin-4-yl]methyl]-3-[rac-(1R,3S)-3-(trifluoromethyl)cyclopentyl]urea]
51	750	O=C(NCc1ccnc(OC(F)F)c1)N[C@@H](C1CCC1)C(F)(F)F [Example 242, 1-[(1S)-1-cyclobutyl-2,2,2-trifluoroethyl]-3-[[2-(difluoromethoxy)pyridin-4-yl]methyl]urea]
42	760	O=C(NCc1ccnc(OC(F)F)n1)N[C@H]1C[C@H](C(F)(F)F)C1 [Example 243, 1-[[2-(difluoromethoxy)pyrimidin-4-yl]methyl]-3-[(1r,3r)-3-(trifluoromethyl)cyclobutyl]urea]
53	90	O=C(NCc1ccnc(OC(F)F)c1)Nc1cccc(F)c1F [Example 247, 1-[[2-(difluoromethoxy)pyridin-4-yl]methyl]-3-(2,3-difluorophenyl)urea]
